# Measured values published in patent publication US10286034B2, “Uses of bremelanotide in therapy for female sexual dysfunction” (Palatin Technologies, Inc., priority 2012, dated 2019).
# Marks after values point to notes of the source that are not given here.
# What was measured:
# Format in all cases: in vivo, human
# [1] = Example 1: ambulatory blood pressure monitoring after in-clinic dose; settings: for Pulse: treatment group difference (from placebo) in mean change: in bpm; for DBP: treatment group difference (from placebo) in mean change / SBP: treatment group difference (from placebo) in mean change: in mmHg (unit assumed); for HR-BP Product: treatment group difference (from placebo) in mean change: in mmHg·bpm (unit assumed)
# Protocol: Ambulatory blood pressure monitoring was conducted following both placebo and randomized treatment group in-clinic administrations. Three periods of ambulatory blood pressure monitoring were included, the first period was from before to 24 hours after a single, in-clinic dose of placebo (to establish a baseline); the second and third periods occurred from before to 24 hours after each of 2 single, in-clinic doses of double-blind treatment, administered within 14 days of each other. Blood samples for pharmacokinetic analysis were collected before and at 0.5, 1.0, and 2.0 hours after each in-clinic bremelanotide single-dose treatment (double-blind only), to permit analysis of concentration-response relationships.
# Mean changes in blood pressure were characterized in all subjects based on sequential supervised dosing of single-blind subcutaneous placebo and two doses of randomized study drug. The primary analysis for mean changes was the difference between treatment groups in the change from single-blind placebo to randomized drug (Visit 2 vs. Visits 5/7). There were between 86 to 100 subjects in each dose group.
# Although there were an increased number of outliers for maximal changes from baseline in systolic blood pressure in drug-treated patients, the duration of these events was quite limited. The interrogation interval during ambulatory blood pressure monitoring assessments of 15 minutes allowed definition of the maximal duration of such excursions. […] The clinical significance of such changes, if any, is small.
# [2] = Pharmacokinetics of subcutaneous administration in healthy adult males; settings: after subcutaneous administration
# Excerpt: Results of Tmax values were compared between subcutaneous administration (SC) and intranasal (IN) administration of various doses of bremelanotide, as shown in FIG. 1.
# [3] = Subcutaneous trials in males: vomiting and tolerability; settings: for subjects experiencing vomiting (mild or moderate): males
# [4] = 0.75 mg SC, interval 0-24 h, V5
# [5] = 0.75 mg SC, interval 0-24 h, V7
# [6] = 0.75 mg SC, interval 8-24 h, V5
# [7] = 0.75 mg SC, interval 8-24 h, V7
# [8] = 1.25 mg SC, interval 0-24 h, V5
# [9] = 1.25 mg SC, interval 0-24 h, V7
# [10] = 1.25 mg SC, interval 8-24 h, V5
# [11] = 1.25 mg SC, interval 8-24 h, V7
# [12] = 1.75 mg SC, interval 0-24 h, V5
# [13] = 1.75 mg SC, interval 0-24 h, V7
# [14] = 1.75 mg SC, interval 8-24 h, V5
# [15] = 1.75 mg SC, interval 8-24 h, V7
structure (smiles),measurement,setting,value
"CCCC[C@H](NC(C)=O)C(=O)N[C@H]1CC(=O)NCCCC[C@@H](C(=O)O)NC(=O)[C@H](Cc2c[nH]c3ccccc23)NC(=O)[C@H](CCCNC(=N)N)NC(=O)[C@@H](Cc2ccccc2)NC(=O)[C@H](Cc2c[nH]cn2)NC1=O [bremelanotide, Ac-Nle-cyclo(-Asp-His-D-Phe-Arg-Trp-Lys)-OH]",Pulse: treatment group difference (from placebo) in mean change,"[1]; 0.75 mg SC, interval 0-4 h, V5",−5.2*
same,DBP: treatment group difference (from placebo) in mean change,"[1]; 0.75 mg SC, interval 0-4 h, V5",1.5
same,SBP: treatment group difference (from placebo) in mean change,"[1]; 0.75 mg SC, interval 0-4 h, V5",1.8
same,HR-BP Product: treatment group difference (from placebo) in mean change,"[1]; 0.75 mg SC, interval 0-4 h, V5",−492.8*
same,Pulse: treatment group difference (from placebo) in mean change,"[1]; 0.75 mg SC, interval 0-4 h, V7",−4.8*
same,DBP: treatment group difference (from placebo) in mean change,"[1]; 0.75 mg SC, interval 0-4 h, V7",0.6
same,SBP: treatment group difference (from placebo) in mean change,"[1]; 0.75 mg SC, interval 0-4 h, V7",1.1
same,HR-BP Product: treatment group difference (from placebo) in mean change,"[1]; 0.75 mg SC, interval 0-4 h, V7",−491.9*
same,Pulse: treatment group difference (from placebo) in mean change,[1]; [4],−2.2*
same,DBP: treatment group difference (from placebo) in mean change,[1]; [4],1.1*
same,SBP: treatment group difference (from placebo) in mean change,[1]; [4],1.1
same,HR-BP Product: treatment group difference (from placebo) in mean change,[1]; [4],−187.7
same,Pulse: treatment group difference (from placebo) in mean change,[1]; [5],−1.6
same,DBP: treatment group difference (from placebo) in mean change,[1]; [5],1.3*
same,SBP: treatment group difference (from placebo) in mean change,[1]; [5],1.5
same,HR-BP Product: treatment group difference (from placebo) in mean change,[1]; [5],−82.3
same,Pulse: treatment group difference (from placebo) in mean change,"[1]; 0.75 mg SC, interval 4-8 h, V5",−6.2*
same,DBP: treatment group difference (from placebo) in mean change,"[1]; 0.75 mg SC, interval 4-8 h, V5",1.3
same,SBP: treatment group difference (from placebo) in mean change,"[1]; 0.75 mg SC, interval 4-8 h, V5",0.9
same,HR-BP Product: treatment group difference (from placebo) in mean change,"[1]; 0.75 mg SC, interval 4-8 h, V5",−676.5*
same,Pulse: treatment group difference (from placebo) in mean change,"[1]; 0.75 mg SC, interval 4-8 h, V7",−5.5*
same,DBP: treatment group difference (from placebo) in mean change,"[1]; 0.75 mg SC, interval 4-8 h, V7",1.7
same,SBP: treatment group difference (from placebo) in mean change,"[1]; 0.75 mg SC, interval 4-8 h, V7",1.6
same,HR-BP Product: treatment group difference (from placebo) in mean change,"[1]; 0.75 mg SC, interval 4-8 h, V7",−503.3*
same,Pulse: treatment group difference (from placebo) in mean change,[1]; [6],−0.4
same,DBP: treatment group difference (from placebo) in mean change,[1]; [6],1.0
same,SBP: treatment group difference (from placebo) in mean change,[1]; [6],0.9
same,HR-BP Product: treatment group difference (from placebo) in mean change,[1]; [6],5.2
same,Pulse: treatment group difference (from placebo) in mean change,[1]; [7],0.1
same,DBP: treatment group difference (from placebo) in mean change,[1]; [7],1.3*
same,SBP: treatment group difference (from placebo) in mean change,[1]; [7],1.6
same,HR-BP Product: treatment group difference (from placebo) in mean change,[1]; [7],114.9
same,Pulse: treatment group difference (from placebo) in mean change,"[1]; 1.25 mg SC, interval 0-4 h, V5",−5.2*
same,DBP: treatment group difference (from placebo) in mean change,"[1]; 1.25 mg SC, interval 0-4 h, V5",3.0*
same,SBP: treatment group difference (from placebo) in mean change,"[1]; 1.25 mg SC, interval 0-4 h, V5",2.4*
same,HR-BP Product: treatment group difference (from placebo) in mean change,"[1]; 1.25 mg SC, interval 0-4 h, V5",−436.4*
same,Pulse: treatment group difference (from placebo) in mean change,"[1]; 1.25 mg SC, interval 0-4 h, V7",−6.1*
same,DBP: treatment group difference (from placebo) in mean change,"[1]; 1.25 mg SC, interval 0-4 h, V7",2.2*
same,SBP: treatment group difference (from placebo) in mean change,"[1]; 1.25 mg SC, interval 0-4 h, V7",2.1*
same,HR-BP Product: treatment group difference (from placebo) in mean change,"[1]; 1.25 mg SC, interval 0-4 h, V7",−583.3*
same,Pulse: treatment group difference (from placebo) in mean change,[1]; [8],−2.9*
same,DBP: treatment group difference (from placebo) in mean change,[1]; [8],1.9*
same,SBP: treatment group difference (from placebo) in mean change,[1]; [8],1.1
same,HR-BP Product: treatment group difference (from placebo) in mean change,[1]; [8],−265.9
same,Pulse: treatment group difference (from placebo) in mean change,[1]; [9],−2.6*
same,DBP: treatment group difference (from placebo) in mean change,[1]; [9],1.7*
same,SBP: treatment group difference (from placebo) in mean change,[1]; [9],1.6*
same,HR-BP Product: treatment group difference (from placebo) in mean change,[1]; [9],−206.5
same,Pulse: treatment group difference (from placebo) in mean change,"[1]; 1.25 mg SC, interval 4-8 h, V5",−6.1*
same,DBP: treatment group difference (from placebo) in mean change,"[1]; 1.25 mg SC, interval 4-8 h, V5",2.2*
same,SBP: treatment group difference (from placebo) in mean change,"[1]; 1.25 mg SC, interval 4-8 h, V5",1.4
same,HR-BP Product: treatment group difference (from placebo) in mean change,"[1]; 1.25 mg SC, interval 4-8 h, V5",−621.0*
same,Pulse: treatment group difference (from placebo) in mean change,"[1]; 1.25 mg SC, interval 4-8 h, V7",−6.5*
same,DBP: treatment group difference (from placebo) in mean change,"[1]; 1.25 mg SC, interval 4-8 h, V7",0.9
same,SBP: treatment group difference (from placebo) in mean change,"[1]; 1.25 mg SC, interval 4-8 h, V7",1.3*
same,HR-BP Product: treatment group difference (from placebo) in mean change,"[1]; 1.25 mg SC, interval 4-8 h, V7",−669.7*
same,Pulse: treatment group difference (from placebo) in mean change,[1]; [10],−1.5
same,DBP: treatment group difference (from placebo) in mean change,[1]; [10],1.4*
same,SBP: treatment group difference (from placebo) in mean change,[1]; [10],0.7
same,HR-BP Product: treatment group difference (from placebo) in mean change,[1]; [10],−127.4
same,Pulse: treatment group difference (from placebo) in mean change,[1]; [11],−0.7
same,DBP: treatment group difference (from placebo) in mean change,[1]; [11],1.7*
same,SBP: treatment group difference (from placebo) in mean change,[1]; [11],1.5*
same,HR-BP Product: treatment group difference (from placebo) in mean change,[1]; [11],4.2
same,Pulse: treatment group difference (from placebo) in mean change,"[1]; 1.75 mg SC, interval 0-4 h, V5",−4.6*
same,DBP: treatment group difference (from placebo) in mean change,"[1]; 1.75 mg SC, interval 0-4 h, V5",3.2*
same,SBP: treatment group difference (from placebo) in mean change,"[1]; 1.75 mg SC, interval 0-4 h, V5",3.1*
same,HR-BP Product: treatment group difference (from placebo) in mean change,"[1]; 1.75 mg SC, interval 0-4 h, V5",−305.9
same,Pulse: treatment group difference (from placebo) in mean change,"[1]; 1.75 mg SC, interval 0-4 h, V7",−4.7*
same,DBP: treatment group difference (from placebo) in mean change,"[1]; 1.75 mg SC, interval 0-4 h, V7",2.6*
same,SBP: treatment group difference (from placebo) in mean change,"[1]; 1.75 mg SC, interval 0-4 h, V7",2.5*
same,HR-BP Product: treatment group difference (from placebo) in mean change,"[1]; 1.75 mg SC, interval 0-4 h, V7",−375.4*
same,Pulse: treatment group difference (from placebo) in mean change,[1]; [12],−2.2*
same,DBP: treatment group difference (from placebo) in mean change,[1]; [12],1.9*
same,SBP: treatment group difference (from placebo) in mean change,[1]; [12],1.6
same,HR-BP Product: treatment group difference (from placebo) in mean change,[1]; [12],−139.1
same,Pulse: treatment group difference (from placebo) in mean change,[1]; [13],−2.2*
same,DBP: treatment group difference (from placebo) in mean change,[1]; [13],1.8*
same,SBP: treatment group difference (from placebo) in mean change,[1]; [13],1.3
same,HR-BP Product: treatment group difference (from placebo) in mean change,[1]; [13],−184.1
same,Pulse: treatment group difference (from placebo) in mean change,"[1]; 1.75 mg SC, interval 4-8 h, V5",−6.6*
same,DBP: treatment group difference (from placebo) in mean change,"[1]; 1.75 mg SC, interval 4-8 h, V5",2.3*
same,SBP: treatment group difference (from placebo) in mean change,"[1]; 1.75 mg SC, interval 4-8 h, V5",2.1
same,HR-BP Product: treatment group difference (from placebo) in mean change,"[1]; 1.75 mg SC, interval 4-8 h, V5",−608.1*
same,Pulse: treatment group difference (from placebo) in mean change,"[1]; 1.75 mg SC, interval 4-8 h, V7",−6.6*
same,DBP: treatment group difference (from placebo) in mean change,"[1]; 1.75 mg SC, interval 4-8 h, V7",2.2*
same,SBP: treatment group difference (from placebo) in mean change,"[1]; 1.75 mg SC, interval 4-8 h, V7",2.2
same,HR-BP Product: treatment group difference (from placebo) in mean change,"[1]; 1.75 mg SC, interval 4-8 h, V7",−624.5*
same,Pulse: treatment group difference (from placebo) in mean change,[1]; [14],−0.8
same,DBP: treatment group difference (from placebo) in mean change,[1]; [14],1.4*
same,SBP: treatment group difference (from placebo) in mean change,[1]; [14],0.9
same,HR-BP Product: treatment group difference (from placebo) in mean change,[1]; [14],−23.7
same,Pulse: treatment group difference (from placebo) in mean change,[1]; [15],−0.5
same,DBP: treatment group difference (from placebo) in mean change,[1]; [15],1.4
same,SBP: treatment group difference (from placebo) in mean change,[1]; [15],0.6
same,HR-BP Product: treatment group difference (from placebo) in mean change,[1]; [15],−31.3
same,maximal change in systolic pressure,"[1]; 1.75 mg dosing group, average of Visits 5 and 7",3.15 mm Hg
same,change in blood pressure,"[1]; drug treated subjects, predominantly within 4 hours of dosing",~2 mm Hg
same,time to quantifiable concentrations in plasma,[2],≤ 15 min
same,subjects experiencing vomiting (mild or moderate),[3]; 7.5 mg dose level,1 of 6
same,subjects experiencing vomiting (mild or moderate),[3]; 5-mg dose level,1 of 6
same,subjects experiencing vomiting (mild or moderate),[3]; 10-mg dose level,3 of 6
same,tolerability,"[3]; single subcutaneous doses of 4 and 6 mg, male subjects with ED and preexisting hypertension",improved tolerability
